Experiments:
[1] = molecular target: T1, NOX-ms (Methanobrevibacter smithii, UniProt A5UJ73); test: absorption spectrum of holo, apo and reconstituted enzyme; activity restored by FAD; type: binding; settings: apoenzyme reconstituted with equimolar FAD, room temperature, 5 min, dialysed
T1 construct: gene Msm_0046; N-terminal His-tag (pET28a, EcoRI/XhoI), tag kept; E. coli BL21(DE3); FAD-containing holoenzyme (apo form for the FAD row)
T1 sequence (A5UJ73 1-444): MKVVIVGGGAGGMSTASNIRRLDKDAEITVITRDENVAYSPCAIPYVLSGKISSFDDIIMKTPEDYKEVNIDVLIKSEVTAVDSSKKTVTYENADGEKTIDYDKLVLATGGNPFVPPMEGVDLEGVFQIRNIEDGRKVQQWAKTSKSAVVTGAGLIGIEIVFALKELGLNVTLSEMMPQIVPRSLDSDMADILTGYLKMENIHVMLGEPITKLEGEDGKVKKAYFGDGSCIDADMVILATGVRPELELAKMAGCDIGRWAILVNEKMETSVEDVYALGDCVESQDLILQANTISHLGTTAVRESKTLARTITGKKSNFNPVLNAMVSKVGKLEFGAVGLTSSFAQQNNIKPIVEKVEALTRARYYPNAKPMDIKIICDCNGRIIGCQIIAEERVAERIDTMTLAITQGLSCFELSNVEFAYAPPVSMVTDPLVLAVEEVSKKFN

[2] = molecular target: T2, NOX-ms (Methanobrevibacter smithii, UniProt A5UJ73, C230A); test: NADH oxidation at A340, relative activity; type: biochemical; settings: apparent; O2 as co-substrate (aerobic); NADH 0.02-0.6 mM; optimal conditions (about 37°C, 50 mM sodium phosphate)
T2 construct: gene Msm_0046; N-terminal His-tag (pET28a, EcoRI/XhoI), tag kept; E. coli BL21(DE3); FAD-containing holoenzyme (apo form for the FAD row)

[3] = molecular target: T1, NOX-ms; test: NADH oxidation at A340, Michaelis-Menten fit; type: biochemical; settings: apparent; O2 as co-substrate (aerobic); NADH 0.02-0.6 mM; optimal conditions (about 37°C, 50 mM sodium phosphate)

T2 sequence (A5UJ73 entry or part of it C230A): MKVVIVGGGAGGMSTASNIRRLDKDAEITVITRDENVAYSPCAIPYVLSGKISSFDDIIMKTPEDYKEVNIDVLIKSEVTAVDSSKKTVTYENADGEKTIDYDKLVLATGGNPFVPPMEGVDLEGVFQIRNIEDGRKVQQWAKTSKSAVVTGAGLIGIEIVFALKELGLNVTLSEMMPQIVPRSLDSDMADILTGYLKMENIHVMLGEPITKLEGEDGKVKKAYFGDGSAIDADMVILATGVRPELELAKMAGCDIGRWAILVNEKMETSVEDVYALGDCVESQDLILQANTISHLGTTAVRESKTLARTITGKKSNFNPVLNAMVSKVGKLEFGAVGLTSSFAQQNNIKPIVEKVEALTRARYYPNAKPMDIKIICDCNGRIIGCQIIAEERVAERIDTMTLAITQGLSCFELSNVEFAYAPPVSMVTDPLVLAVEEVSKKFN

Km [3]	Compound	absorption spectrum of holo, apo and reconstituted enzyme; activity restored by [1]	NADH oxidation at A340, relative activity [2]
	Cc1cc2nc3c(=O)[nH]c(=O)nc-3n(C[C@H](O)[C@H](O)[C@H](O)COP(=O)(O)OP(=O)(O)OC[C@H]3O[C@@H](n4cnc5c(N)ncnc54)[C@H](O)[C@@H]3O)c2cc1C [FAD]	The holoenzyme can be reconstituted by incubating equimolar concentrations of apomonomers and FAD	
47.8 to 54.6 µM	NC(=O)C1=CN([C@@H]2O[C@H](COP(=O)(O)OP(=O)(O)OC[C@H]3O[C@@H](n4cnc5c(N)ncnc54)[C@H](O)[C@@H]3O)[C@@H](O)[C@H]2O)C=CC1 [NADH]		the C230A mutant had similar NOX activity to that of the wild-type protein
